According to patent US20250236639A1, “NEUROACTIVE STEROIDS AND COMPOSITIONS THEREOF” (Sage Therapeutics, Inc., priority 2019, published 2025):

Molecular target: GABAA receptor
Assay: Steroid inhibition of [35S]-TBPS binding, rat brain cortical membranes
Conditions: 3 nM [35S]-TBPS, in the presence of 5 mM GABA
Method: [^35S]-t-Butylbicyclophosphorothionate (TBPS) binding assays using rat brain cortical membranes in the presence of 5 mM GABA has been described (Gee et al, J. Pharmacol. Exp. Ther. 1987, 241, 346-353; Hawkinson et al, Mol. Pharmacol. 1994, 46, 977-985; Lewin, A. H et al., Mol. Pharmacol. 1989, 35, 189-194).
Briefly, cortices are rapidly removed following decapitation of carbon dioxide-anesthetized Sprague-Dawley rats (200-250 g). The cortices are homogenized in 10 volumes of ice-cold 0.32 M sucrose using a glass/teflon homogenizer and centrifuged at 1500×g for 10 min at 4° C. The resultant supernatants are centrifuged at 10,000×g for 20 min at 4° C. to obtain the P2 pellets. The P2 pellets are resuspended in 200 mM NaCl/50 mM Na—K phosphate pH 7.4 buffer and centrifuged at 10,000×g for 10 min at 4° C. This washing procedure is repeated twice and the pellets are resuspended in 10 volumes of buffer. Aliquots ([…]) of the membrane suspensions are incubated with 3 nM [^35S]-TBPS and […] aliquots of test drug dissolved in dimethyl sulfoxide (DMSO) (final 0.5%) in the presence of 5 mM GABA. The incubation is brought to a final volume of 1.0 mL with buffer. Nonspecific binding is determined in the presence of […] and ranged from 15 to 25%. Following a 90 min incubation at room temp, the assays are terminated by filtration through glass fiber filters (Schleicher and Schuell No. 32) using a cell harvester (Brandel) and rinsed three times with ice-cold buffer. Filter bound radioactivity is measured by liquid scintillation spectrometry. Non-linear curve fitting of the overall data for each drug averaged for each concentration is done using Prism (GraphPad). […] The concentration of test compound producing 50% inhibition (IC50) of specific binding and the maximal extent of inhibition (Imax) are determined for the individual experiments with the same model used for the overall data and then the means±SEM.s of the individual experiments are calculated.
Various compounds are or can be screened to determine their potential as modulators of [^35S]-TBPS binding in vitro. These assays are or can be performed in accordance with the above

| SMILES | IC50 [nM] |
| --- | --- |
| COC[C@@]1(O)CC[C@H]2[C@@H](CC[C@@H]3[C@@H]2CC[C@@]2(C)[C@H]3CC[C@@H]2[C@@](C)(O)Cn2cc(C#N)cn2)C1 [Compound 20, 1-((R)-2-hydroxy-2-((3R,5S,8R,9R,10S,13S,14S,17S)-3-hydroxy-3-(methoxymethyl)-13-methylhexadecahydro-1H-cyclopenta[a]phenanthren-17-yl)propyl)-1H-pyrazole-4-carbonitrile] | 100 to 1000 |
| C[C@@]1(O)CC[C@H]2[C@H](CC[C@@H]3[C@@H]2CC[C@]2(C)[C@@H](C(F)(F)Cn4cc(C#N)cn4)CC[C@@H]32)C1 [Compound 21, 1-(2,2-difluoro-2-((3R,5R,8R,9R,10S,13S,14S,17S)-3-hydroxy-3,13-dimethylhexadecahydro-1H-cyclopenta[a]phenanthren-17-yl)ethyl)-1H-pyrazole-4-carbonitrile] | < 100 |
| CCC[C@@]1(O)CC[C@H]2[C@H](CC[C@@H]3[C@@H]2CC[C@@]2(C)[C@H]3CC[C@@H]2[C@](C)(O)Cn2ccc(C#N)n2)C1 [Compound 22, 1-((S)-2-hydroxy-2-((3R,5R,8R,9R,10S,13S,14S,17S)-3-hydroxy-13-methyl-3-propylhexadecahydro-1H-cyclopenta[a]phenanthren-17-yl)propyl)-1H-pyrazole-3-carbonitrile] | < 100 |
| CCC[C@@]1(O)CC[C@H]2[C@H](CC[C@@H]3[C@@H]2CC[C@@]2(C)[C@H]3CC[C@@H]2[C@@](C)(O)Cn2ccc(C#N)n2)C1 [Compound 23, 1-((R)-2-hydroxy-2-((3R,5R,8R,9R,10S,13S,14S,17S)-3-hydroxy-13-methyl-3-propylhexadecahydro-1H-cyclopenta[a]phenanthren-17-yl)propyl)-1H-pyrazole-3-carbonitrile] | 100 to 1000 |
| CCOC[C@@]1(O)CC[C@@]2(C)[C@H](CC[C@@H]3[C@@H]2CC[C@@]2(C)[C@H]3CC[C@@H]2[C@](C)(O)Cn2cc(C#N)cn2)C1 [Compound 24, 1-((S)-2-((3R,5R,8R,9S,10S,13S,14S,17S)-3-(ethoxymethyl)-3-hydroxy-10,13-dimethylhexadecahydro-1H-cyclopenta[a]phenanthren-17-yl)-2-hydroxypropyl)-1H-pyrazole-4-carbonitrile] | < 100 |
| CCOC[C@@]1(O)CC[C@@]2(C)[C@H](CC[C@@H]3[C@@H]2CC[C@@]2(C)[C@H]3CC[C@@H]2[C@@](C)(O)Cn2cc(C#N)cn2)C1 [Compound 25, 1-((R)-2-((3R,5R,8R,9S,10S,13S,14S,17S)-3-(ethoxymethyl)-3-hydroxy-10,13-dimethylhexadecahydro-1H-cyclopenta[a]phenanthren-17-yl)-2-hydroxypropyl)-1H-pyrazole-4-carbonitrile] | 100 to 1000 |
| CCC[C@@]1(O)CC[C@@]2(C)[C@H](CC[C@@H]3[C@@H]2CC[C@@]2(C)[C@H]3CC[C@@H]2[C@](C)(O)Cn2cc(C#N)cn2)C1 [Compound 26, 1-((S)-2-hydroxy-2-((3R,5R,8R,9S,10S,13S,14S,17S)-3-hydroxy-10,13-dimethyl-3-propylhexadecahydro-1H-cyclopenta[a]phenanthren-17-yl)propyl)-1H-pyrazole-4-carbonitrile] | < 100 |
| CCC[C@@]1(O)CC[C@@]2(C)[C@H](CC[C@@H]3[C@@H]2CC[C@@]2(C)[C@H]3CC[C@@H]2[C@@](C)(O)Cn2cc(C#N)cn2)C1 [Compound 27, 1-((R)-2-hydroxy-2-((3R,5R,8R,9S,10S,13S,14S,17S)-3-hydroxy-10,13-dimethyl-3-propylhexadecahydro-1H-cyclopenta[a]phenanthren-17-yl)propyl)-1H-pyrazole-4-carbonitrile] | 100 to 1000 |
| C[C@@]1(O)CC[C@H]2[C@H](CC[C@@H]3[C@@H]2CC[C@]2(C)[C@@H](C4(Cn5cc(C#N)cn5)COC4)CC[C@@H]32)C1 [Compound 28, 1-((3-((3R,5R,8R,9R,10S,13S,14S,17S)-3-hydroxy-3,13-dimethylhexadecahydro-1H-cyclopenta[a]phenanthren-17-yl)oxetan-3-yl)methyl)-1H-pyrazole-4-carbonitrile] | < 100 |
| COC[C@@]1(O)CC[C@H]2[C@H](CC[C@@H]3[C@@H]2CC[C@@]2(C)[C@H]3CC[C@@H]2[C@](C)(O)Cn2cc(C#N)cn2)C1 [Compound 29, 1-((S)-2-hydroxy-2-((3R,5R,8R,9R,10S,13S,14S,17S)-3-hydroxy-3-(methoxymethyl)-13-methylhexadecahydro-1H-cyclopenta[a]phenanthren-17-yl)propyl)-1H-pyrazole-4-carbonitrile] | < 100 |
| COC[C@@]1(O)CC[C@H]2[C@H](CC[C@@H]3[C@@H]2CC[C@@]2(C)[C@H]3CC[C@@H]2[C@@](C)(O)Cn2cc(C#N)cn2)C1 [Compound 30, 1-((R)-2-hydroxy-2-((3R,5R,8R,9R,10S,13S,14S,17S)-3-hydroxy-3-(methoxymethyl)-13-methylhexadecahydro-1H-cyclopenta[a]phenanthren-17-yl)propyl)-1H-pyrazole-4-carbonitrile] | 100 to 1000 |
| CC(=O)c1cnn(C[C@@](C)(O)[C@H]2CC[C@H]3[C@@H]4CC[C@@H]5C[C@](C)(O)CC[C@@H]5[C@H]4CC[C@@]32C)c1 [Compound 31, 1-(1-((S)-2-hydroxy-2-((3R,5R,8R,9R,10S,13S,14S,17S)-3-hydroxy-3,13-dimethylhexadecahydro-1H-cyclopenta[a]phenanthren-17-yl)propyl)-1H-pyrazol-4-yl)ethanone] | < 100 |
| CC[C@H]1C[C@H]2[C@H](CC[C@@H]3[C@@H]2CC[C@@]2(C)[C@H]3CC[C@@H]2[C@](C)(O)Cn2cc(C#N)cn2)C[C@]1(C)O [Compound 34, 1-((S)-2-((2S,3S,5R,8R,9R,10S,13S,14S,17S)-2-ethyl-3-hydroxy-3,13-dimethylhexadecahydro-1H-cyclopenta[a]phenanthren-17-yl)-2-hydroxypropyl)-1H-pyrazole-4-carbonitrile] | < 100 |
| CC[C@H]1C[C@H]2[C@H](CC[C@@H]3[C@@H]2CC[C@@]2(C)[C@H]3CC[C@@H]2[C@@](C)(O)Cn2cc(C#N)cn2)C[C@]1(C)O [Compound 35, 1-((R)-2-((2S,3S,5R,8R,9R,10S,13S,14S,17S)-2-ethyl-3-hydroxy-3,13-dimethylhexadecahydro-1H-cyclopenta[a]phenanthren-17-yl)-2-hydroxypropyl)-1H-pyrazole-4-carbonitrile] | 100 to 1000 |
| CCC[C@@]1(O)CC[C@H]2[C@H](CC[C@@H]3[C@@H]2CC[C@@]2(C)[C@H]3CC[C@@H]2[C@@](C)(Cn2cc(C#N)cn2)OC)C1 [Compound 36, 1-((S)-2-((3R,5R,8R,9R,10S,13S,14S,17S)-3-hydroxy-13-methyl-3-propylhexadecahydro-1H-cyclopenta[a]phenanthren-17-yl)-2-methoxypropyl)-1H-pyrazole-4-carbonitrile] | 100 to 1000 |
| CCC[C@@]1(O)CC[C@H]2[C@H](CC[C@@H]3[C@@H]2CC[C@@]2(C)[C@H]3CC[C@@H]2[C@](C)(Cn2cc(C#N)cn2)OC)C1 [Compound 37, 1-((R)-2-((3R,5R,8R,9R,10S,13S,14S,17S)-3-hydroxy-13-methyl-3-propylhexadecahydro-1H-cyclopenta[a]phenanthren-17-yl)-2-methoxypropyl)-1H-pyrazole-4-carbonitrile] | 100 to 1000 |
| COC[C@@]1(O)CC[C@H]2[C@H](CC[C@@H]3[C@@H]2CC[C@]2(C)[C@@H](C(F)(F)Cn4cc(C#N)cn4)CC[C@@H]32)C1 [Compound 38, 1-(2,2-difluoro-2-((3R,5R,8R,9R,10S,13S,14S,17S)-3-hydroxy-3-(methoxymethyl)-13-methylhexadecahydro-1H-cyclopenta[a]phenanthren-17-yl)ethyl)-1H-pyrazole-4-carbonitrile] | < 100 |
| C[C@@]1(O)CC[C@H]2[C@H](CC[C@@H]3[C@@H]2CC[C@]2(C)[C@@H](C4(Cn5cc(C#N)cn5)CC4)CC[C@@H]32)C1 [Compound 39, 1-((1-((3R,5R,8R,9R,10S,13S,14S,17S)-3-hydroxy-3,13-dimethylhexadecahydro-1H-cyclopenta[a]phenanthren-17-yl)cyclopropyl)methyl)-1H-pyrazole-4-carbonitrile] | < 100 |
